# Measurements from patent publication US20240150423A1, “GLP-1 ANALOGUE-MODIFIED DIMERS WITH DIFFERENT CONFIGURATIONS, PREPARATION METHOD THEREOF, AND APPLICATION THEREOF IN TREATMENT OF TYPE II DIABETES” (Nanjing Finepeptide Biopharmaceutical Co.,Ltd, priority 2019, published 2024).
# Non-standard residues stand in square brackets, D forms with d. No end group written: not given here. βAla = NCCC(=O)O
# Test system: Normal Kunming (KM) mice
# Test: multiple OGTT (mOGTT): hypoglycemic duration after a single administration
# Assay type: in vivo
# Settings: monomeric peptides, single injection at the same dose (1.126 nmol), subcutaneous
# In short: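 Normal Kunming mice given a single dose, then oral glucose challenges; tail-blood glucose read by meter at 0, 10, 20, 40, 60 and 120 min. Duration scored as hypoglycemic period until group mean glucose exceeded the NaCl control twice.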
substance,measurement,value
His-βAib-Glu-Gly-Thr-Phe-Thr-Ser-Asp-Val-Ser-Cys-Tyr-Leu-Glu-Gly-Gln-Ala-Ala-Lys[N-ϵ-(N-α-Palmitoyl-L-γ-glutamyl)]-Glu-Phe-Ile-Ala-Trp-Leu-Val-Lys[N-ϵ-(N-α-Palmitoyl-L-γ-glutamyl)]-Gly-Arg-Gly-NH2 (HXEGTFTSDVSCYLEGQAAXEFIAWLVXGRG; not fully specified; beta-Aib; two palmitoyl-gamma-Glu on Lys; C-terminal amide; Sequence is synthesized; (2)..(2) Xaa is bAib; (20)..(20) Xaa is 26Lys[N-e-(N-a-palmitoyl-L-g-glutamyl)]; (28)..(28) Xaa is 26Lys[N-e-(N-a-palmitoyl-L-g-glutamyl)]; (31)..(31) N-terminal) [G5 series 43],Hypoglycemic,3 days
His-βAib-Glu-Gly-Thr-Phe-Thr-Ser-Asp-Val-Ser-Cys-Tyr-Leu-Glu-Gly-Gln-Ala-Ala-Lys[N-ϵ-(N-α-oleoyl)]-Glu-Phe-Ile-Ala-Trp-Leu-Val-Arg-Gly-Arg-Gly-NH2 (HXEGTFTSDVSCYLEGQAAXEFIAWLVRGRG; not fully specified; beta-Aib; oleoyl on Lys side chain; C-terminal amide; Sequence is synthesized; (2)..(2) Xaa is bAib; (20)..(20) Xaa is 26Lys[N-e-(N-a-oleoyl-L-g-glutamyl)]; (31)..(31) N-terminal) [G4 series 38],Hypoglycemic,6 days
His-βAib-Glu-Gly-Thr-Phe-Thr-Ser-Asp-Val-Ser-Cys-Tyr-Leu-Glu-Gly-Gln-Ala-Ala-Lys[N-ϵ-(N-α-oleoyl-L-γ-glutamyl)]-Glu-Phe-Ile-Ala-Trp-Leu-Val-Arg-Gly-Arg-Gly-NH2 (HXEGTFTSDVSCYLEGQAAXEFIAWLVRGRG; not fully specified; beta-Aib; oleoyl-gamma-Glu on Lys; C-terminal amide; Sequence is synthesized; (2)..(2) Xaa is bAib; (20)..(20) Xaa is 26Lys[N-e-(N-a-oleoyl-L-g-glutamyl)]; (31)..(31) N-terminal) [G6 series 49],Hypoglycemic,5 days
His-βAla-Glu-Gly-Thr-Phe-Thr-Cys-Asp-Val-Ser-Ser-Tyr-Leu-Glu-Gly-Gln-Ala-Ala-Lys-Glu-Phe-Ile-Ala-Trp-Leu-Val-Arg-βAla-Arg-NH2 (H[βAla]EGTFTCDVSSYLEGQAAKEFIAWLVR[βAla]R-NH2; not fully specified; printed as His-βAla-Glu-Gly-Thr-Phe-Thr-Cys-Asp-Val-Ser-Ser-Tyr-Leu-Glu-Gly-Gln-Ala-Ala-Lys-Glu-Phe-Ile-Ala-Trp-Leu-Val-Arg-βAla-Arg-NH2) [G8 series 69],Hypoglycemic,2 days
His-βAla-Glu-Gly-Thr-Phe-Thr-Cys-Asp-Val-Ser-Ser-Tyr-Leu-Glu-Gly-Gln-Ala-Ala-Lys[N-ϵ-(N-α-oleoyl-L-γ-glutamyl)]-Glu-Phe-Ile-Ala-Trp-Leu-Val-Arg-Gly-Arg-Gly-NH2 (HXEGTFTCDVSSYLEGQAAXEFIAWLVRGRG; beta-amino acid; oleoyl-gamma-Glu on Lys; C-terminal amide; Sequence is synthesized; (2)..(2) Xaa is bAla; (20)..(20) Xaa is 26Lys[N-e-(N-a-oleoyl-L-g-glutamyl)]; (31)..(31) N-terminal) [G8 series 68],Hypoglycemic,4 days
His-βAla-Glu-Gly-Thr-Phe-Thr-Ser-Asp-Val-Cys-Ser-Tyr-Leu-Glu-Gly-Gln-Ala-Ala-Lys-Glu-Phe-Ile-Ala-Trp-Leu-Val-Arg-βAla-Arg-NH2 (H[βAla]EGTFTSDVCSYLEGQAAKEFIAWLVR[βAla]R-NH2; not fully specified; printed as His-βAla-Glu-Gly-Thr-Phe-Thr-Ser-Asp-Val-Cys-Ser-Tyr-Leu-Glu-Gly-Gln-Ala-Ala-Lys-Glu-Phe-Ile-Ala-Trp-Leu-Val-Arg-βAla-Arg-NH2) [G2 series 19],Hypoglycemic,3 days
His-βAla-Glu-Gly-Thr-Phe-Thr-Ser-Asp-Val-Cys-Ser-Tyr-Leu-Glu-Gly-Gln-Ala-Ala-Lys[N-ϵ-(N-α-oleoyl)]-Glu-Phe-Ile-Ala-Trp-Leu-Val-Arg-Gly-Arg-Gly-NH2 (HXEGTFTSDVCSYLEGQAAXEFIAWLVRGRG; β-amino acid; oleoyl on Lys; C-terminal amide; Sequence is synthesized; (2)..(2) Xaa is bAla; (20)..(20) Xaa is 26Lys[N-e-(N-a-oleoyl-L-g-glutamyl)]; (31)..(31) N-terminal) [G4 series 31],Hypoglycemic,5 days
His-βAla-Glu-Gly-Thr-Phe-Thr-Ser-Asp-Val-Cys-Ser-Tyr-Leu-Glu-Gly-Gln-Ala-Ala-Lys[N-ϵ-(N-α-oleoyl-L-γ-glutamyl)]-Glu-Phe-Ile-Ala-Trp-Leu-Val-Arg-Gly-Arg-Gly-NH2 (HXEGTFTSDVCSYLEGQAAXEFIAWLVRGRG; β-amino acid; oleoyl-γ-glutamyl on Lys; C-terminal amide; Sequence is synthesized; (2)..(2) Xaa is bAla; (20)..(20) Xaa is 26Lys[N-e-(N-a-oleoyl-L-g-glutamyl)]; (31)..(31) N-terminal) [G2 series 18],Hypoglycemic,5 days
His-βAla-Glu-Gly-Thr-Phe-Thr-Ser-Asp-Val-Ser-Cys-Tyr-Leu-Glu-Gly-Gln-Ala-Ala-Lys-Glu-Phe-Ile-Ala-Trp-Leu-Val-Arg-βAla-Arg-NH2 (H[βAla]EGTFTSDVSCYLEGQAAKEFIAWLVR[βAla]R-NH2; also: disulfide-linked homodimer via Cys12) [G7 series 55],Hypoglycemic,2 days
His-βAla-Glu-Gly-Thr-Phe-Thr-Ser-Asp-Val-Ser-Cys-Tyr-Leu-Glu-Gly-Gln-Ala-Ala-Lys[N-ϵ-(N-α-Palmitoyl-L-γ-glutamyl)]-Glu-Phe-Ile-Ala-Trp-Leu-Val-Lys[N-ϵ-(N-α-Palmitoyl-L-γ-glutamyl)]-Gly-Arg-Gly-NH2 (HXEGTFTSDVSCYLEGQAAXEFIAWLVXGRG; not fully specified; beta-amino acid; two palmitoyl-gamma-Glu on Lys; amide; Sequence is synthesized; (2)..(2) Xaa is bAla; (20)..(20) Xaa is 26Lys[N-e-(N-a-palmitoyl-L-g-glutamyl)]; (28)..(28) Xaa is 26Lys[N-e-(N-a-palmitoyl-L-g-glutamyl)]; (31)..(31) N-terminal) [G5 series 44],Hypoglycemic,2 days
His-βAla-Glu-Gly-Thr-Phe-Thr-Ser-Asp-Val-Ser-Cys-Tyr-Leu-Glu-Gly-Gln-Ala-Ala-Lys[N-ϵ-(N-α-oleoyl)]-Glu-Phe-Ile-Ala-Trp-Leu-Val-Arg-Gly-Arg-Gly-NH2 (HXEGTFTSDVSCYLEGQAAXEFIAWLVRGRG; beta-amino acid; oleoyl on Lys side chain; C-terminal amide; Sequence is synthesized; (2)..(2) Xaa is bAla; (20)..(20) Xaa is 26Lys[N-e-(N-a-oleoyl-L-g-glutamyl)]; (31)..(31) N-terminal) [G4 series 39],Hypoglycemic,5 days
His-βAla-Glu-Gly-Thr-Phe-Thr-Ser-Asp-Val-Ser-Cys-Tyr-Leu-Glu-Gly-Gln-Ala-Ala-Lys[N-ϵ-(N-α-oleoyl-L-γ-glutamy)]-Glu-Phe-Ile-Ala-Trp-Leu-Val-Arg-Gly-Arg-Gly-NH2 (HXEGTFTSDVSCYLEGQAAXEFIAWLVRGRG; beta-amino acid; oleoyl-gamma-Glu on Lys; C-terminal amide; Sequence is synthesized; (2)..(2) Xaa is bAla; (20)..(20) Xaa is 26Lys[N-e-(N-a-oleoyl-L-g-glutamyl)]; (31)..(31) N-terminal) [G6 series 50],Hypoglycemic,4 days
